We go through one substance from patent US9187784B2, “EphA4 is a disease modifier in motor neuron disease” (VIB VZW, priority 2011, dated 2015).

The data set deals with RTK1. Nature of the data set: RTK1 expression by Western blot and whole-mount immunostaining of zebrafish embryos. The class given is in vivo. The conditions noted are these: Western blot of zebrafish embryos and whole-mount immunostaining of rhombomeres, 4.5 ng. An excerpt: FIG. 1: EphA4 knockdown rescues mutant SOD1-induced motor axonopathy. […] Abnormal branching is indicated with arrowhead. Y-axes show motor axon length of zebrafish embryos expressing wild-type SOD1 (black bar, Panels D-G) or mutant SOD1 (white bar, Panels D-G). Knockdown of RTK2 in SOD1A4V- (Panel D), SOD1G93A- (Panel E) and SOD1G37R- (Panel F) expressing fish was established by co-injection of increasing amounts of atg-RTK2 morpholino (shaded bars). RTK1 expression was inhibited in SOD1A4V-expressing fish by co-injection of atg-RTK1 morpholino (shaded bars, Panel G). Ctr-RTK2 and ctr-RTK1 were used as control. ANOVA and Bonferroni's multiple comparison tests were used for statistical analysis. […]
Mice spinal cord and 30 hpf old, dechorionated and deyolked zebrafish embryos, and NSC-43 cells were homogenized in buffer: 50 mM Triz/HCl, pH 7.5, 120 mM NaCl, 1% TRITON® X-100, 1 mM sodium orthovanadaat, 2 mM PMSF, complete protease inhibitor (Roche). Protein concentration was determined using the micro-BCA protein assay reaction kit 207 (Pierce). […]

For the substance “5′-CTGTGAACACAAGCGCAGCCATTGG-′3 (all phosphorodiamidate morpholino (PMO)) [atg-RTK1]”, the RTK1 expression result is “efficiently blocked RTK1 expression”.
